Test system: HCV (1b) RNA replication (replicon I389Luc-ubi-neo/NS3-3′/5.1)
Assay: Cell-based luciferase reporter HCV (1b) RNA replication assay, Huh-ET cells
Details: Hepatitis C virus; Table 2A; HCV genotype 1b replicon
Text: Cell-Based Luciferase Reporter HCV (Ib) RNA Replication Assay Cell Culture
Replicon cell lines Huh-5.2 are derived from the Huh-7 hepatocarcinoma cell line are maintained in culture as generally described in Krieger, N; Lohmann, V; Bartenschlager, R. Enhancement of hepatitis C virus RNA replication by cell culture-adaptive mutations. J. Virol. 2001, 75, 4614-4624. The Huh-5.2 cells contain the highly cell culture-adapted replicon I389Luc-ubi-neo/NS3-3′/5.1 construct that carries, in addition to the neomycin gene, an integrated copy to the firefly luciferase gene (Krieger, N; Lohmann, V; Bartenschlager, R. Enhancement of hepatitis C virus RNA replication by cell culture-adaptive mutations. J. Virol. 2001, 75, 4614-4624). This cell line allows measurement of HCV RNA replication and translation by measuring luciferase activity. It has been previously shown that the luciferase activity tightly follows the replicon RNA level in these cells (Krieger, N; Lohmann, V; Bartenschlager, R. Enhancement of hepatitis C virus RNA replication by cell culture-adaptive mutations. J. Virol. 2001, 75, 4614-4624). The Huh-ET cell line has the same features as those mentioned for Huh-5.2 cell line, except that ET cells are more robust and contain an adaptative mutation in the HCV NS4B gene instead of NSSA. Both cell lines are maintained in cultures at a sub-confluent level (<85%) as the level of replicon RNA is highest in actively proliferating cells. The culture media used for cell passaging consist of DMEM (Gibco BRL Laboratories, Mississauga, ON, Canada) supplemented with 10% foetal bovine serum with 1% penicilin/streptomycin, 1% glutamine, 1% sodium pyruvate, 1% non-essential amino acids, and 180 μg/ml of G418 final concentration. Cells are incubated at 37° C., in an atmosphere of 5% CO2 and passaged twice a week to maintain sub-confluence.
Approximately 3000 viable Huh-ET cells (100 μl) are plated per well in a white opaque 96-well microtiter plate. The cell culture media used for the assay is the same as described above except that it contains no G418 and no phenol red. After an incubation period of 3-4 hours at 37° C. in a 5% CO2 incubator, compounds (100 μl) are added at various concentrations. Cells are then further incubated for 4 days at 37° C. in a 5% CO2 incubator. Thereafter, the culture media is removed and cells are lysed by the addition of 95 μL of the luciferase buffer (luciferin substrate in buffered detergent). Cell lysates are incubated at room temperature and protected from direct light for at least 10 minutes. Plates are read for luciferase counts using a luminometer (Wallac MicroBeta Trilux, Perkin Elmer™, MA, USA).
Curves are fitted to data points using nonlinear regression analysis, and IC50s are interpolated from the resulting curve using GraphPad Prism software, version 2.0 (GraphPad Software Inc., San Diego, Calif., USA).

Compound | EC50 [nM]
COC(=O)N[C@H](C(=O)N1C[C@@H](C)C[C@H]1c1nc2cc(C#Cc3ccc(-c4cc5[nH]c([C@@H]6C[C@H](C)CN6C(=O)[C@@H](NC(=O)OC)C(C)C)nc5s4)cc3)ccc2[nH]1)C(C)C [Compound 14] | ≤ 5
COC(=O)N[C@H](C(=O)N1C[C@@H](C)C[C@H]1c1ncc(-c2cc3sc(-c4ccc(-c5cc6[nH]c([C@@H]7C[C@H](C)CN7C(=O)[C@@H](NC(=O)OC)C(C)C)nc6s5)cc4)cc3s2)[nH]1)C(C)C [Compound 29] | ≤ 5
COC(=O)N[C@H](C(=O)N1C[C@@H](C)C[C@H]1c1ncc(C#Cc2ccc(-c3cc4[nH]c([C@@H]5C[C@H](C)CN5C(=O)[C@@H](NC(=O)OC)C(C)C)nc4s3)s2)[nH]1)C(C)C [Compound 31] | ≤ 5
COC(=O)N[C@H](C(=O)N1C[C@@H](C)C[C@H]1c1nc2cc(C#Cc3cc4[nH]c([C@@H]5C[C@H](C)CN5C(=O)[C@@H](NC(=O)OC)C(C)C)nc4s3)ccc2[nH]1)C(C)C [Compound 3] | ≤ 5
COC(=O)N[C@H](C(=O)N1CCC[C@H]1c1nc2sc(C#CC#Cc3cc4[nH]c([C@@H]5CCCN5C(=O)[C@@H](NC(=O)OC)C(C)C)nc4s3)cc2[nH]1)C(C)C [Compound 2] | ≤ 5
COC(=O)N(C)[C@H](C(=O)N1C[C@@H](C)C[C@H]1c1nc2sc(C#CC#Cc3cc4[nH]c([C@@H]5C[C@H](C)CN5C(=O)[C@H](C(C)C)N(C)C(=O)OC)nc4s3)cc2[nH]1)C(C)C [Compound 5] | ≤ 5
COC(=O)N[C@H](C(=O)N1C[C@@H](C)C[C@H]1c1ncc(-c2ccc(-c3ccc(-c4cc5[nH]c([C@@H]6C[C@H](C)CN6C(=O)[C@@H](NC(=O)OC)C(C)C)nc5s4)cc3)s2)[nH]1)C(C)C [Compound 25] | ≤ 5
COC(=O)N[C@H](C(=O)N1C[C@@H](C)C[C@H]1c1ncc(C#Cc2ccc(-c3ccc(-c4cc5[nH]c([C@@H]6C[C@H](C)CN6C(=O)[C@@H](NC(=O)OC)C(C)C)nc5s4)s3)cc2)[nH]1)C(C)C [Compound 21] | ≤ 5
COC(=O)N[C@H](C(=O)N1C[C@@H](C)C[C@H]1c1nc2sc(C#CC#Cc3cc4[nH]c([C@@H]5C[C@H](C)CN5C(=O)[C@@H](NC(=O)OC)C(C)C)nc4s3)cc2[nH]1)C(C)C [Compound 4, dimethyl (2S,2′S)-1,1′-((3S,3′S,5S,5′S)-5,5′-(5,5′-(buta-1,3-diyne-1,4-diyl)bis(1H-thieno[2,3-d]imidazole-5,2-diyl))bis(3-methylpyrrolidine-5,1-diyl))bis(3-methyl-1-oxobutane-2,1-diyl)dicarbamate] | ≤ 5
COC(=O)N[C@H](C(=O)N1C[C@@H](C)C[C@H]1c1nc(C)c(-c2ccc(-c3ccc(-c4cc5nc([C@@H]6C[C@H](C)CN6C(=O)[C@@H](NC(=O)OC)C(C)C)[nH]c5s4)cc3)cc2)[nH]1)C(C)C [Compound 28] | ≤ 5
COC(=O)N[C@H](C(=O)N1C[C@@H](C)C[C@H]1c1nc(-c2csc3ccc(-c4ccc(-c5cc6nc([C@@H]7C[C@H](C)CN7C(=O)[C@@H](NC(=O)OC)C(C)C)[nH]c6s5)cc4)cc23)c[nH]1)C(C)C [Compound 23] | 5 to 5000
COC(=O)N[C@H](C(=O)N1C[C@@H](C)C[C@H]1c1nc2cc(/C=C/c3ccc(-c4cc5[nH]c([C@@H]6C[C@H](C)CN6C(=O)[C@@H](NC(=O)OC)C(C)C)nc5s4)cc3)ccc2[nH]1)C(C)C [Compound 17] | ≤ 5
COC(=O)N[C@H](C(=O)N1C[C@@H](C)C[C@H]1c1nc(-c2cccc(-c3ccc(-c4cc5nc([C@@H]6C[C@H](C)CN6C(=O)[C@@H](NC(=O)OC)C(C)C)[nH]c5s4)cc3)c2)c[nH]1)C(C)C [Compound 20] | ≤ 5
COC(=O)N[C@H](C(=O)N1C[C@@H](C)C[C@H]1c1nc(-c2cc3sccc3s2)c(-c2ccc(-c3cc4nc([C@@H]5C[C@H](C)CN5C(=O)[C@@H](NC(=O)OC)C(C)C)[nH]c4s3)cc2)[nH]1)C(C)C [Compound 16] | ≤ 5
COC(=O)N[C@H](C(=O)N1C[C@@H](C)C[C@H]1c1ncc(-c2ccc(-c3ccc(-c4cc5[nH]c([C@@H]6C[C@H](C)CN6C(=O)[C@@H](NC(=O)OC)C(C)C)nc5s4)cc3)cc2)[nH]1)C(C)C [Compound 11] | ≤ 5
C[C@H]1C[C@@H](c2nc3cc(-c4ccc(-c5ccc(-c6cc7[nH]c([C@@H]8C[C@H](C)CN8C(=O)OC(C)(C)C)nc7s6)cc5)s4)ccc3[nH]2)N(C(=O)OC(C)(C)C)C1 [Compound 18] | 5 to 5000
COC(=O)N[C@H](C(=O)N1C[C@@H](C)C[C@H]1c1nc2sc(-c3ccc(-c4ccc5nc([C@@H]6C[C@H](C)CN6C(=O)[C@@H](NC(=O)OC)C(C)C)n(C)c5c4)cc3)cc2[nH]1)C(C)C [Compound 9] | ≤ 5
COC(=O)N[C@H](C(=O)N1C[C@@H](C)C[C@H]1c1cc2ccc(-c3ccc(-c4cc5[nH]c([C@@H]6C[C@H](C)CN6C(=O)[C@@H](NC(=O)OC)C(C)C)nc5s4)cc3)cc2[nH]1)C(C)C [Compound 10] | ≤ 5
COC(=O)N[C@H](C(=O)N1C[C@@H](C)C[C@H]1c1ncc(-c2ccc(-c3ccc(-c4cc5[nH]c([C@@H]6C[C@H](C)CN6C(=O)[C@@H](NC(=O)OC)C(C)C)nc5s4)s3)cc2)[nH]1)C(C)C [Compound 22] | ≤ 5
COC(=O)N[C@H](C(=O)N1C[C@@H](C)C[C@H]1c1nc2cc(-c3ccc(-c4ccc(-c5cc6nc([C@@H]7C[C@H](C)CN7C(=O)[C@@H](NC(=O)OC)C(C)C)[nH]c6s5)cc4)cc3)sc2[nH]1)C(C)C [Compound 24] | ≤ 5

Same assay, conditions: Hepatitis C virus; Table 2B; HCV genotype 1b replicon

Compound | EC50 [nM]
COC(=O)N[C@H](C(=O)N1C[C@@H](C)C[C@H]1c1ncc(-c2ccc(-c3ccc(-c4cc5[nH]c([C@@H]6C[C@H](C)CN6C(=O)[C@@H](NC(=O)OC)C(C)C)nc5s4)cc3)cc2F)[nH]1)C(C)C [Compound 10a] | ≤ 5
COC(=O)N[C@H](C(=O)N1C[C@@H](C)C[C@H]1c1nc(Cl)c(-c2ccc(-c3ccc(-c4sc5[nH]c([C@@H]6C[C@H](C)CN6C(=O)[C@@H](NC(=O)OC)C(C)C)nc5c4Cl)cc3)cc2)[nH]1)C(C)C [Compound 2a] | ≤ 5
COC(=O)N[C@H](C(=O)N1C[C@@H](C)C[C@H]1c1ncc(-c2ccc(-c3ccc(-c4cc5[nH]c([C@@H]6C[C@H](C)CN6C(=O)[C@@H](NC(=O)OC)C(C)C)nc5s4)cc3)c(C)c2)[nH]1)C(C)C [Compound 12a] | ≤ 5
COC(=O)N[C@H](C(=O)N1C[C@@H](C)C[C@H]1c1nc(-c2ccc(-c3ccc(-c4cc5[nH]c([C@@H]6C[C@H](C)CN6C(=O)[C@@H](NC(=O)OC)C(C)C)nc5s4)cc3F)cc2)c[nH]1)C(C)C [Compound 6a] | ≤ 5
COC(=O)N[C@H](C(=O)N1C[C@@H](C)C[C@@H]1c1nc2cc(-c3ccc(-c4ccc(-c5c[nH]c([C@@H]6C[C@H](C)CN6C(=O)[C@@H](NC(=O)OC)C(C)C)n5)cc4)cc3C)sc2[nH]1)C(C)C [Compound 5a] | ≤ 5
C[C@H]1C[C@@H](c2ncc(-c3ccc(-c4ccc(-c5cc6[nH]c([C@@H]7C[C@H](C)CN7C(=O)OC(C)(C)C)nc6s5)cc4)c(F)c3)[nH]2)N(C(=O)OC(C)(C)C)C1 [Compound 4a] | ≤ 5
COC(=O)N[C@H](C(=O)N1C[C@@H](C)C[C@H]1c1nc(Cl)c(-c2ccc(-c3ccc(-c4cc5nc([C@@H]6C[C@H](C)CN6C(=O)[C@@H](NC(=O)OC)C(C)C)[nH]c5s4)cc3)cc2)[nH]1)C(C)C [Compound 1a] | ≤ 5
COC(=O)N[C@H](C(=O)N1C[C@@H](C)C[C@H]1c1nc(-c2ccc(-c3ccc(-c4cc5[nH]c([C@@H]6C[C@H](C)CN6C(=O)[C@@H](NC(=O)OC)C(C)C)nc5s4)c(F)c3)cc2)c[nH]1)C(C)C [Compound 7a] | ≤ 5
COC(=O)N[C@H](C(=O)N1C[C@@H](C)C[C@H]1c1ncc(-c2ccc(-c3ccc(-c4cc5[nH]c([C@@H]6C[C@H](C)CN6C(=O)[C@@H](NC(=O)OC)C(C)C)nc5s4)cc3)c(F)c2)[nH]1)C(C)C [Compound 9a] | ≤ 5
COC(=O)N[C@H](C(=O)N1C[C@@H](C)C[C@H]1c1nc(I)c(-c2ccc(-c3ccc(-c4cc5nc([C@@H]6C[C@H](C)CN6C(=O)[C@@H](NC(=O)OC)C(C)C)[nH]c5s4)cc3)cc2)[nH]1)C(C)C [Compound 3a] | ≤ 5
COC(=O)N[C@H](C(=O)N1C[C@@H](C)C[C@H]1c1nc(-c2ccc(-c3ccc(-c4cc5[nH]c([C@@H]6C[C@H](C)CN6C(=O)[C@@H](NC(=O)OC)C(C)C)nc5s4)cc3C)cc2)c[nH]1)C(C)C [Compound 8a] | ≤ 5

Reference: patent publication US20130090364A1, “ANALOGUES FOR THE TREATMENT OR PREVENTION OF FLAVIVIRUS INFECTIONS” (priority 2010, published 2013)
